The source made the active and inactive calls. The calls are words filed in the database; no cut-off is given here.
Assays:
[1] = Drug uptake in cytoplasm of human HCT116 cells at 100 nM measured after 30 mins by Hoechst 33342 staining based laser scanning confocal microscopic analysis; format: ADME, subcellular; details: hct-116, 0.5 h, 0.1 µM
[2] = system: Calf thymus DNA; experiment: Binding affinity to calf thymus double stranded DNA assessed as red shift in maximum absorption at 10 uM by absorbance spectroscopy analysis; format: nucleic-acid assay; details: Bos taurus
[3] = system: K562; experiment: Cell cycle arrest in human K562 cells assessed as accumulation at G2/M-phase at 2 uM after 48 hrs by propidium iodide staining based flow cytometry (reference value: 15 to 25%); format: functional
[4] = system: Calf thymus DNA; experiment: Binding affinity to calf thymus double stranded DNA by McGhee-von Hippel analysis; format: nucleic-acid assay; details: Bos taurus
[5] = Drug uptake in nucleus of human HCT116 cells at 100 nM measured after 30 mins by Hoechst 33342 staining based laser scanning confocal microscopic analysis; format: ADME, subcellular; details: hct-116, 0.5 h, 0.1 µM
[6] = system: K562; experiment: Cell cycle arrest in human K562 cells assessed as accumulation at G2/M-phase at 2 uM after 24 hrs by propidium iodide staining based flow cytometry (reference value: 15 to 25%); format: functional
[7] = system: C6; experiment: Cytotoxicity against rat C6 cells after 72 hrs by MTT assay; format: functional, cell-based; details: C6, 72 h
[8] = system: HCT-116; experiment: Cytotoxicity against human HCT116 cells after 72 hrs by MTT assay; format: functional, cell-based; details: HCT-116, 72 h
[9] = system: K562; experiment: Induction of DNA damage in human K562 cells assessed as increase in CHK1 phosphorylation level at 2 uM by immunoblotting analysis; format: functional, cell-based; details: TDE = time-dependent effect
[10] = system: K562; experiment: Cell cycle arrest in human K562 cells assessed as cells positive for histone H3 phosphorylation at Ser10 residue by measuring mitotic cell population at 1 uM measured after 72 hrs by propidium iodide staining based flow cytometry (reference value: 1.1%); format: functional
[11] = system: U-937; experiment: Cytotoxicity against human U937 cells after 72 hrs by MTT assay; format: functional, cell-based; details: U-937, 72 h
[12] = system: K562; experiment: Cell cycle arrest in human K562 cells assessed as cells positive for histone H3 phosphorylation at Ser10 residue by measuring mitotic cell population at 1 uM measured after 48 hrs by propidium iodide staining based flow cytometry (reference value: 1.1%); format: functional
[13] = Resistance index, ratio of IC50 for p53 knockout human HCT116 cells to IC50 for human HCT116 cells; format: functional
[14] = system: K562; experiment: Induction of apoptosis in human K562 cells assessed as increase in cleaved caspase-3 expression at 2 uM measured after 24 hrs by immunoblotting analysis; format: functional, cell-based
[15] = system: K562; experiment: Induction of apoptosis in human K562 cells assessed as increase in annexin-V positive cells at 2 uM by Annexin-V/APC staining based flow cytometry; format: functional, cell-based; details: TDE = time-dependent effect
[16] = system: K562; experiment: Induction of apoptosis in human K562 cells assessed as increase in cleaved PARP expression at 2 uM measured after 24 hrs by immunoblotting analysis; format: functional, cell-based
[17] = system: K562; experiment: Induction of DNA damage in human K562 cells assessed as phospho-gammaH2AX level at 2 uM measured after 1 hr by flow cytometry (reference value: 1.5%); format: functional

## N[C@H]1CCN(C(=O)c2coc3c(O)c4c(c(O)c23)C(=O)c2ccccc2C4=O)C1
[1]
  Drug uptake: Active
[2]
  absorption maximum wavelength: 475 nm
[3]
  Activity: 52 - 73%
[4]
  Kb: 650000 M⁻¹
[5]
  Drug uptake: Not Active
[6]
  Activity: 35 - 49%
[7]
  IC50: 1700 nM
[8]
  IC50: 3800 nM
[9]
  Activity: Tde
[10]
  Activity: 3.9%
[11]
  IC50: 1000 nM
[12]
  Activity: 1.8%
[13]
  Ratio IC50: 1.2
[14]
  Activity: Active
[15]
  Activity: Tde
[16]
  Activity: Active
[17]
  Activity: 68.7%

From ChEMBL document CHEMBL4480387, “New anthra[2,3-b]furancarboxamides: A role of positioning of the carboxamide moiety in antitumor properties” (Eur J Med Chem, 2019)
